We go through two compounds from US11253589B2, “Modulation of the immune response” (priority 2007, dated 2022).

“Also recorded” adds a separate entry of the source.

For one experiment, the system named is CD4+Foxp3:GFP+ Treg. The experiment is described as follows: Treg suppressive activity assay. It is filed as cell-based, mouse. The procedure:
Cells were cultured in serum-free X-VIVO 20™ media (BioWhittaker, Walkersville, Md., USA) for 72 hours. During the last 16 hours, cells were pulsed with 1 μCi of [^3H]thymidine (PerkinElmer, Waltham, Mass., USA) followed by harvesting on glass fiber filters and analysis of incorporated [^3H]thymidine in a beta-counter (1450 Microbeta, Trilux, PerkinElmer). Alternatively, culture supernatants were collected […] activation and the cytokine concentration was determined by ELISA using antibodies for IFN-γ, IL-17, IL-4, IL-10 from BD Biosciences and antibodies to TGF-β from R&D Systems. For suppression assays, MACS purified CD4^+CD25^− T cells from naïve C57BL/6 mice (1-5×10^4 cells/well) were stimulated with antibodies to CD3 and C57BL/6 irradiated spleen cells (0.3-1.5×10^4 cells/well) for 3 days in the presence of different ratios of CD4^+ GFP^+ retrovirus-transduced T cells.
To investigate the active suppression of MOG35-55-specific Teff by Treg, Foxp3^gpf knock in mice were immunized with MOG35-55/CFA, treated daily with intreaperitoneal ITE ([…]) and the recall response to MOG35-55 and a mitogenic antibody to CD3 antibody was studied on FACS-sorted CD4^+ T cells and CD4^+ FoxP3:GFP− Teff. […] This suppressed response to MOG35-55 was lost upon removal of the CD4^+FoxP3:GFP^+ Treg (FIG. 26). To further analyze the MOG35-55-specific suppressive activity of the CD4^+FoxP3:GFP^+ Treg, they were cocultured at different ratios and assayed for the suppression of MOG35-55 or anti-CD3-triggered proliferation of CD4^+FoxP3:GFP− Teff form 2D2 mice, which harbor a TCR specific for MOG35-55.

The target in a further experiment is T1, AHR (Homo sapiens, UniProt P35869).
T1 sequence (P35869 11-848): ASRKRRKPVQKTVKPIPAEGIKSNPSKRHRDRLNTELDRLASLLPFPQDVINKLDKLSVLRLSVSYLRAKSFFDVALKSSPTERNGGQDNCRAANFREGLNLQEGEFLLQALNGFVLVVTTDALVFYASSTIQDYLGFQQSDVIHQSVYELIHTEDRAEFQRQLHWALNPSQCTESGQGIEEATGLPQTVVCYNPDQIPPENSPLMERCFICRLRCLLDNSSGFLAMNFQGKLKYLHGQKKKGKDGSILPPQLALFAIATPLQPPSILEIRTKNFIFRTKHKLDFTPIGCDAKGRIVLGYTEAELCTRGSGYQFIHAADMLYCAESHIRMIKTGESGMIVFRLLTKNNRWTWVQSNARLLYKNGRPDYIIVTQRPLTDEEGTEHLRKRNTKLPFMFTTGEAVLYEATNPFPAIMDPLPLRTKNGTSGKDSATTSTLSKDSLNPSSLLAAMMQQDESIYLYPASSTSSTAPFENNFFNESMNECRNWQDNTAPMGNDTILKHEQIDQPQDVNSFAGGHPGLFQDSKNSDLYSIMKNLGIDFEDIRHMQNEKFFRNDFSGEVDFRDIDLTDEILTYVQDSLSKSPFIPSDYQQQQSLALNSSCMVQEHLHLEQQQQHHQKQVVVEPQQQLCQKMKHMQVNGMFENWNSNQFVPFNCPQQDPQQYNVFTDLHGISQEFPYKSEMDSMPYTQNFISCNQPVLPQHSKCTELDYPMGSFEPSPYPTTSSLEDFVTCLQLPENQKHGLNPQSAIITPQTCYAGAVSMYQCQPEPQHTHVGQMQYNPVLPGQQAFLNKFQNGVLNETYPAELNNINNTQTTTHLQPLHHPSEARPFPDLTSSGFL
Particulars: cited from earlier work.

In the next experiment the test system is C57BL/6 mice. The experiment is described as follows: EAE in recipient mice after transfer of CD4+ T cells from treated mice. The format is in vivo, mouse. From the text: To identify the mechanism responsible for the decreased proliferation to MOG35-55 in TCDD-treated animals shown in FIG. 4D, the CD4^+CD25^+ Treg population was depleted with magnetic beads. […] The control of the pathogenic T cell response was mediated by CD4^+CD25^+ Treg, their depletion abrogated the protective effect of the transferred cells (P<0.001, two-way ANOVA, n=4; FIG. 5C).
To confirm that the protective effect of TCDD on EAE was Treg mediated we depleted the natural Treg with antibodies to CD25 prior to TCDD treatment. […] This protective effect was lost when CD4^+CD25^+ T cells were depleted, see FIG. 5h and Table 5.
The control of the pathogenic T cell response was mediated by CD4^+CD25^+ Treg, their depletion from the transferred population abrogated the protective effect of the transferred cells. Thus, the Treg induced by the activation of AHR with ITE inhibit the progression of EAE.

Experiment [1] deals with CD4+IL-17+ and CD4+IFNg+ T cells. The experiment is described as follows: Frequency of CD4+IL-17+ and CD4+IFNg+ T cells by FACS. It is filed as in vivo, mouse. The procedure: In addition, cells were stimulated in culture medium containing 100 μg/ml MOG35-55 for 2 days or with PMA (50 ng/ml) (Sigma-Aldrich) and ionomycin ([…]) (Calbiochem, San Diego, Calif., USA) for 4 hours, Golgistop (BD Biosciences) was added to the culture during the last 4 hours. After staining of surface markers, cells were fixed and permeabilized using Cytofix/Cytoperm and Perm/Wash buffer from BD Biosciences according to the manufacturer's instructions. All antibodies to cytokines (IFN-gamma, IL-17, IL-10) including the corresponding isotype controls were obtained from BD Biosciences. Cells were incubated (1:100) at 25° C. for 20 min and washed twice in Perm/Wash before analysis. Data were acquired on a FACSCalibur (BD Biosciences) and analyzed with FlowJo software (Tree Star, Ashland, Oreg., USA).
To confirm the suppressive effects of AHR activation on the generation of T cells secreting IFNg and IL17, IFNg^+ and IL17^+ CD4^+ T cells were quantified by FACS in the draining lymph nodes ten days after footpad immunization and intraperitoneal administration of ITE ([…]).
(In general: Flow cytometry measures light scatter and fluorescence of single cells or particles in a stream.)

Setting [2] is: ITE 200 mg/mice intraperitoneal, draining lymph nodes ten days after footpad immunization.
The mark [3] stands for this setting: recipients of 5 × 10^6 CD4+ T cells from TCDD treated mice.
[4] abbreviates: recipients of 5 × 10^6 CD4+CD25- T cells from TCDD treated mice.
Where [5] appears, read: draining lymph nodes of TCDD-treated mice.

Take `COC(=O)c1csc(C(=O)c2c[nH]c3ccccc23)n1` [ITE, 2-(1′H-indole-3′-carbonyl)-thiazole-4-carboxylic acid methyl ester]: in the experiment with CD4+Foxp3:GFP+ Treg (Treg from ITE-treated mice, 2D2 Teff as responders), the “MOG35-55-specific suppressive activity of CD4+ FoxP3:GFP+ Treg” value is on record as “increased MOG35-55-specific suppressive activity”. In addition, the AHR affinity entry on AHR was “high affinity AHR ligands”. Also, in the experiment on C57BL/6 mice (CD4+ T cells from mice treated with oral or intraperitoneal ITE), the “protection from EAE by transfer of CD4+ T cells” value is “Protection from EAE could be transferred”. In experiment [1] (setting [2]), the “frequency of CD4+IFNg+ T cells” value is recorded as “decrease in the frequency” and the “frequency of CD4+IL17+ T cells” value was “decrease in the frequency”.
Consider `Clc1cc2c(cc1Cl)Oc1cc(Cl)c(Cl)cc1O2` [TCDD, 2,3,7,8 tetrachlorodibenzo-p-dioxin], for which the “MOG35-55-specific suppressive activity of CD4+Foxp3:GFP+ T cells” value in the experiment on CD4+Foxp3:GFP+ Treg (Treg expanded in vivo by TCDD administration and MOG35-55 immunization) was “increased MOG35-55-specific suppressive activity”. Further, the “proliferation and suppressive activity of CD4+Foxp3:GFP+ Treg purified from naïve mice” value in the experiment on CD4+Foxp3:GFP+ Treg (stimulation with antibodies to CD3 and CD28 and TCDD) was “did not proliferate and did not show increased suppressive activity”. Besides, the AHR affinity entry on AHR is recorded as “high affinity AHR ligand”. Further, in the experiment on C57BL/6 mice (setting [3]), the “Mean day of onset (Mean ± SD)” value worked out at 13.3 ± 0.6 days and the “Mean maximum score (mean ± SD)” value is 0.7 ± 0.8. In the experiment with C57BL/6 mice (setting [4]), the “Mean day of onset (Mean ± SD)” value turned out to be 11.0 ± 0.0 days and the “Mean maximum score (mean ± SD)” value amounted to 2.6 ± 1.8. In the experiment with C57BL/6 mice (transfer of 5×10^6 CD4+ T cells from TCDD-treated mice), the “development of EAE” value is “significantly inhibited the development of EAE”. Besides, in experiment [1] (setting [5]), the “frequency of CD4+IFNg+ T cells” value is reported as “decrease in the frequency” and the “frequency of CD4+IL-17 T cells” value is on record as “decrease in the frequency”. The “IL-17+CD4+ T cells in the draining lymph nodes” value in experiment [1] (natural Treg depleted with antibodies to CD25 prior to TCDD treatment, day 18) is reported as “significant reduction; also recorded: significant decrease in the frequency”.
